Assay results as given in patent US11046694B2, “Compounds and methods for treating bacterial infections” (Entasis Therapeutics, Inc., priority 2018, dated 2021).
Counter-ions that a name gives are not always drawn.

Legend:
[1] = tested on: K. pneumoniae (ATCC700603); test: MIC against K. pneumoniae; conditions: for MIC: Klebsiella pneumoniae, ATCC700603, read-out: K. pneumoniae MIC (ATCC700603)
P. aeruginosa WT (PAO1) = test: MIC, CLSI broth microdilution, P. aeruginosa; assay type: cell-based; conditions: CLSI broth microdilution; for MIC: Pseudomonas aeruginosa, PAO1, read-out: P. aeruginosa WT (PAO1) MIC
E. coli (ATCC25922) = test: MIC against E. coli; conditions: for MIC: Escherichia coli, ATCC25922, read-out: E. coli MIC (ATCC25922) (mg/L)
A. baumannii (ARC3495) = test: MIC against A. baumannii; conditions: for MIC: Acinetobacter baumannii, read-out: A. baumannii MIC (ARC3495) (mg/L)
P. aeruginosa PBP3 = P. aeruginosa PBP3 (Pseudomonas aeruginosa, UniProt G3XD46); assay type: biochemical; conditions: P. aeruginosa PBP3 60 nM, BOCILLIN FL 30 nM, pH 7.0
P. aeruginosa PBP1a = P. aeruginosa PBP1a (Pseudomonas aeruginosa, UniProt Q07806); assay type: biochemical; conditions: P. aeruginosa PBP1a 60 nM, BOCILLIN FL 30 nM, pH 7.0
P. aeruginosa PBP2 = molecular target: T1, P. aeruginosa PBP2 (Pseudomonas aeruginosa, UniProt Q9X6V3); assay type: biochemical; conditions: P. aeruginosa PBP2 300 nM, BOCILLIN FL 30 nM, pH 6.2
T1 sequence (Q9X6V3 1-646): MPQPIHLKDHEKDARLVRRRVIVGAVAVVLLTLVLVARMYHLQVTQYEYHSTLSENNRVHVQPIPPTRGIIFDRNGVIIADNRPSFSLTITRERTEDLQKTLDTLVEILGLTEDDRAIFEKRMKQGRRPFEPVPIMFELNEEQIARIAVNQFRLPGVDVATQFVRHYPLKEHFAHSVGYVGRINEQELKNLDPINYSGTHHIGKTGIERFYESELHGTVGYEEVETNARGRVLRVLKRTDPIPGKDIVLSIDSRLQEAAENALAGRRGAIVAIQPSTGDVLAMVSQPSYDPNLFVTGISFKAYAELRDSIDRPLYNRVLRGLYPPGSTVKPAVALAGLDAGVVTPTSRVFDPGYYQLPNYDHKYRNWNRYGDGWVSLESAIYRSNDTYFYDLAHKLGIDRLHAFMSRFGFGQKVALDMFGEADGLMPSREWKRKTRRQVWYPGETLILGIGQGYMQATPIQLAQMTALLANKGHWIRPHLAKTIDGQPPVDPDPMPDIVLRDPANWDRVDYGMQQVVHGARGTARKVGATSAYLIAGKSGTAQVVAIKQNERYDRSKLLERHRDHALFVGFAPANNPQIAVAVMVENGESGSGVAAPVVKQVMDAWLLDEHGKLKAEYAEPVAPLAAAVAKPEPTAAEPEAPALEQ

Chain of P. aeruginosa PBP1a (Q07806 whole entry): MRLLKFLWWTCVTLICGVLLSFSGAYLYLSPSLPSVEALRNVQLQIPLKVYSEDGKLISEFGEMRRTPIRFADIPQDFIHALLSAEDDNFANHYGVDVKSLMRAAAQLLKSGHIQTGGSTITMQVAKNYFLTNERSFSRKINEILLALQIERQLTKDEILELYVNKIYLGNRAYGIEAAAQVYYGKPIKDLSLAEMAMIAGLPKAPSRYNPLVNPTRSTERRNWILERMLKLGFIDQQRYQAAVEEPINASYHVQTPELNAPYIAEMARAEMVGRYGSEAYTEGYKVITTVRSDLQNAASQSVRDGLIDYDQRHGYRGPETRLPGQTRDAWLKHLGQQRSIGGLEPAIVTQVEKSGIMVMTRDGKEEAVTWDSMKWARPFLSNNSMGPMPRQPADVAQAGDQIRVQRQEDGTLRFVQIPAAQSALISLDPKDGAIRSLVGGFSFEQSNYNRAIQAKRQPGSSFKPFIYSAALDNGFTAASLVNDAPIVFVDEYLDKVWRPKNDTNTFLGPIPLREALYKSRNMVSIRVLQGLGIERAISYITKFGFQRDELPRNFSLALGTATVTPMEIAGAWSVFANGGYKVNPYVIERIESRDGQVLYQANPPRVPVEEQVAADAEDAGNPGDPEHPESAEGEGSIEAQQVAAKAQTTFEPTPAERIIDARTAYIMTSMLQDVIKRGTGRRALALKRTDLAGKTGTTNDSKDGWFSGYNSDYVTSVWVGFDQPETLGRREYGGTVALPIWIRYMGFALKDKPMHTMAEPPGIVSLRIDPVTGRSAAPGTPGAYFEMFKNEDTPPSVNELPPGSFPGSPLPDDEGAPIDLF
Chain of P. aeruginosa PBP3 (G3XD46 whole entry): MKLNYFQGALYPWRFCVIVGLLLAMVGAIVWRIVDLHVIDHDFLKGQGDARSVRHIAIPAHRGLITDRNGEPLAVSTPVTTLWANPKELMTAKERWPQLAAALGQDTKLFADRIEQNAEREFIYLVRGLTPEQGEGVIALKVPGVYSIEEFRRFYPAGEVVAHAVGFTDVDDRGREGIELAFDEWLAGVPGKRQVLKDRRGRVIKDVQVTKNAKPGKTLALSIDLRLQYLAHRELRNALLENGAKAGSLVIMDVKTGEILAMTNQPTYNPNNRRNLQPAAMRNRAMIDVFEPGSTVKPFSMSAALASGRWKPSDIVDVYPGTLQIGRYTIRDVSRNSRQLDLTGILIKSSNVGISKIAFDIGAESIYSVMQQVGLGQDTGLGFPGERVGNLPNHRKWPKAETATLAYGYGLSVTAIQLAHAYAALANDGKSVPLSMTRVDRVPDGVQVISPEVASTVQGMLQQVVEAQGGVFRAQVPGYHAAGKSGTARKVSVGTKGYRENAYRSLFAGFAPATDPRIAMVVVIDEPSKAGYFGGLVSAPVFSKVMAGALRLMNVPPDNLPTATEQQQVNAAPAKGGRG

| SMILES | MIC [1] | MIC (P. aeruginosa WT (PAO1)) | MIC (E. coli (ATCC25922)) | MIC (A. baumannii (ARC3495)) | PBP3 acylation rate, k(on) (M^−1 · s^−1) (P. aeruginosa PBP3) | PBP1a acylation rate, k(on) (M^−1 · s^−1) (P. aeruginosa PBP1a) | PBP2 acylation rate, k(on) (M^−1 · s^−1) (P. aeruginosa PBP2) | K. pneumoniae MIC (ATCC700603) [1] | P. aeruginosa WT (PAO1) MIC (mg/L) (P. aeruginosa WT (PAO1)) | E. coli MIC (ATCC25922) (mg/L) (E. coli (ATCC25922)) | A. baumannii MIC (ARC3495) (mg/L) (A. baumannii (ARC3495)) |
| --- | --- | --- | --- | --- | --- | --- | --- | --- | --- | --- | --- |
| CN/C(=N\OC(N)=O)[C@@H]1c2c(cnn2C)[C@@H]2CN1C(=O)N2OS(=O)(=O)O (racemic) [Example 14, pyridium (4R,8S)-8-((Z)—N′-(carbamoyloxy)-N-methylcarbamimidoyl)-1-methyl-6-oxo-4,8-dihydro-1H-4,7-methanopyrazolo[3,4-e][1,3]diazepin-5(6H)-yl hydrogen sulfate] | < 8 µg/mL | < 8 µg/mL | < 8 mg/L | 8 to 16 mg/L | *** (*** represents a k(on) > 10,000 M^−1 · s^−1) | ** (** represents a k(on) of 100 to 10,000 M^−1 · s^−1) | * (* represents a k(on) < 100 M^−1 · s^−1) | – | – | – | – |
| Cn1ncc2c1[C@@H](C1=NOC(C(=O)O)C1)N1C[C@@H]2N(OS(=O)(=O)O)C1=O (mixture of isomers) [Example 35, 3-((4R,8S)-1-methyl-6-oxo-5-(sulfooxy)-4,5,6,8-tetrahydro-1H-4,7-methanopyrazolo[3,4-e][1,3]diazepin-8-yl)-4,5-dihydroisoxazole-5-carboxylic acid] | > 16 µg/mL | > 16 µg/mL | < 8 mg/L | > 16 mg/L | ** (** represents a k(on) of 100 to 10,000 M^−1 · s^−1) | * (* represents a k(on) < 100 M^−1 · s^−1) | * (* represents a k(on) < 100 M^−1 · s^−1) | – | – | – | – |
| Cn1ncc2c1[C@@H](C1=NOC(Cc3ccccc3)C1)N1C[C@@H]2N(OS(=O)(=O)O)C1=O (mixture of isomers) [Example 36] | > 16 µg/mL | > 16 µg/mL | < 8 mg/L | > 16 mg/L | ** (** represents a k(on) of 100 to 10,000 M^−1 · s^−1) | ** (** represents a k(on) of 100 to 10,000 M^−1 · s^−1) | * (* represents a k(on) < 100 M^−1 · s^−1) | – | – | – | – |
| Cn1ncc2c1[C@@H](C1=NOC(Cc3ccccc3)C1)N1C[C@@H]2N(OS(=O)(=O)O)C1=O (mixture of isomers) [Example 37] | – | – | – | – | ** (** represents a k(on) of 100 to 10,000 M^−1 · s^−1) | * (* represents a k(on) < 100 M^−1 · s^−1) | * (* represents a k(on) < 100 M^−1 · s^−1) | * (* represents an MIC > 16 mg/L) | * (* represents an MIC > 16 mg/L) | *** (*** represents an MIC < 8 mg/L) | * (* represents an MIC > 16 mg/L) |
| CC1C([C@@H]2c3c(cnn3C)[C@@H]3CN2C(=O)N3OS(=O)(=O)O)=NOC1CO (mixture of isomers) [Example 39, Pyridium (4R,8S)-8-(5-(hydroxymethyl)-4-methyl-4,5-dihydroisoxazol-3-yl)-1-methyl-6-oxo-4,8-dihydro-1H-4,7-methanopyrazolo[3,4-e][1,3]diazepin-5(6H)-yl hydrogen sulfate] | > 16 µg/mL | > 16 µg/mL | < 8 mg/L | > 16 mg/L | ** (** represents a k(on) of 100 to 10,000 M^−1 · s^−1) | * (* represents a k(on) < 100 M^−1 · s^−1) | * (* represents a k(on) < 100 M^−1 · s^−1) | – | – | – | – |
| CN/C(=N\O)[C@@H]1c2c(cnn2C)[C@@H]2CN1C(=O)N2OS(=O)(=O)O (stereo in doubt) [Example 1, sodium (4R,8S)-8-((Z)—N′-hydroxy-N-methylcarbamimidoyl)-1-methyl-6-oxo-4,8-dihydro-1H-4,7-methanopyrazolo[3,4-e][1,3]diazepin-5(6H)-yl sulfate] | < 8 µg/mL | < 8 µg/mL | < 8 mg/L | < 8 mg/L | *** (*** represents a k(on) > 10,000 M^−1 · s^−1) | ** (** represents a k(on) of 100 to 10,000 M^−1 · s^−1) | * (* represents a k(on) < 100 M^−1 · s^−1) | – | – | – | – |
| CN/C(=N\O)[C@H]1c2c(cnn2C)[C@H]2CN1C(=O)N2OS(=O)(=O)O (stereo in doubt) [Example 41, Sodium (4S*,8R*)-8-((Z)—N′-hydroxy-N-methylcarbamimidoyl)-1-methyl-6-oxo-4,8-dihydro-1H-4,7-methanopyrazolo[3,4-e][1,3]diazepin-5(6H)-yl hydrogen sulfate] | > 16 µg/mL | > 16 µg/mL | < 8 mg/L | > 16 mg/L | ** (** represents a k(on) of 100 to 10,000 M^−1 · s^−1) | * (* represents a k(on) < 100 M^−1 · s^−1) | * (* represents a k(on) < 100 M^−1 · s^−1) | – | – | – | – |
| Cn1ncc2c1[C@@H](CN)N1C[C@@H]2N(OS(=O)(=O)O)C1=O [Comparator 1, reference compound] | < 8 µg/mL | < 8 µg/mL | < 8 mg/L | > 16 mg/L | * (* represents a k(on) < 100 M^−1 · s^−1) | * (* represents a k(on) < 100 M^−1 · s^−1) | *** (*** represents a k(on) > 5,000 M^−1 · s^−1) | – | – | – | – |
| CNC(=O)[C@@H]1c2c(cnn2C)[C@@H]2CN1C(=O)N2OS(=O)(=O)O [Comparator 2, reference compound] | > 16 µg/mL | > 16 µg/mL | < 8 mg/L | > 16 mg/L | ** (** represents a k(on) of 100 to 10,000 M^−1 · s^−1) | * (* represents a k(on) < 100 M^−1 · s^−1) | * (* represents a k(on) < 100 M^−1 · s^−1) | – | – | – | – |
| CN(C)/C(=N\O)[C@@H]1c2c(cnn2C)[C@@H]2CN1C(=O)N2OS(=O)(=O)O [Example 2, (4R,8S)-8-((Z)—N′-hydroxy-N,N-dimethylcarbamimidoyl)-1-methyl-6-oxo-4,8-dihydro-1H-4,7-methanopyrazolo[3,4-e][1,3]diazepin-5(6H)-yl hydrogen sulfate] | 8 to 16 µg/mL | > 16 µg/mL | 8 to 16 mg/L | 8 to 16 mg/L | *** (*** represents a k(on) > 10,000 M^−1 · s^−1) | ** (** represents a k(on) of 100 to 10,000 M^−1 · s^−1) | * (* represents a k(on) < 100 M^−1 · s^−1) | – | – | – | – |
| Cn1ncc2c1[C@@H](/C(N)=N/O)N1C[C@@H]2N(OS(=O)(=O)[O-])C1=O.[Na+] [Example 3, Sodium (4R,8S)-8-((Z)—N′-hydroxycarbamimidoyl)-1-methyl-6-oxo-4,8-dihydro-1H-4,7-methanopyrazolo[3,4-e][1,3]diazepin-5(6H)-yl sulfate] | < 8 µg/mL | > 16 µg/mL | < 8 mg/L | > 16 mg/L | ** (** represents a k(on) of 100 to 10,000 M^−1 · s^−1) | * (* represents a k(on) < 100 M^−1 · s^−1) | * (* represents a k(on) < 100 M^−1 · s^−1) | – | – | – | – |
